Measured values: ChEMBL document CHEMBL1201862, “PubChem BioAssay data set” (2004)
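Briefly, cells in 96-well plates were exposed to five compound concentrations for 48 h, and endpoints were estimated by linear interpolation. The concentration for 50% growth inhibition is given as GI50.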 The source made the active and inactive calls. Cut-off read from the data, not from the text of the source: active = GI50 up to about 1.1 µM and inactive = higher.

What was measured:
Experiment in all cases: NCI tumour cell line growth inhibition, 48 h
[1] = tested on: EKVX
[2] = tested on: HOP-92
[3] = tested on: HCC 2998
[4] = tested on: MDA-MB-435
[5] = tested on: IGROV-1
[6] = tested on: RPMI-8226
[7] = tested on: A549
[8] = tested on: NCI/ADR-RES
[9] = tested on: KM12
[10] = tested on: SN12C
[11] = tested on: MDA-MB-231
[12] = tested on: M14
[13] = tested on: SK-MEL-5
[14] = tested on: ACHN
[15] = tested on: CAKI-1
[16] = tested on: OVCAR-3
[17] = tested on: MDA-N

Row | Compound | GI50 [1] | GI50 [2] | GI50 [3] | GI50 [4] | GI50 [5] | GI50 [6] | GI50 [7] | GI50 [8] | GI50 [9] | GI50 [10] | GI50 [11] | GI50 [12] | GI50 [13] | GI50 [14] | GI50 [15] | GI50 [16] | GI50 [17]
1 | O=C(CCC(=O)CC(O)(C(F)(F)F)C(F)(F)F)CC(O)(C(F)(F)F)C(F)(F)F | 35 µM (inactive) | 20.7 µM (inactive) | 58.1 µM (inactive) | 47.9 µM (inactive) | 29.7 µM (inactive) | 26.7 µM (inactive) | 46.8 µM (inactive) | 61.7 µM (inactive) | 26.4 µM (inactive) | 42.6 µM (inactive) | 29.4 µM (inactive) | 41.2 µM (inactive) | 55.7 µM (inactive) | 33.7 µM (inactive) |  |  | 
2 | OCC(O)C1OC2CC1Nc1ccccc1N2 (stereo not drawn) | > 100 µM (inactive) | > 100 µM (inactive) | > 100 µM (inactive) | > 100 µM (inactive) | > 100 µM (inactive) | > 100 µM (inactive) | > 100 µM (inactive) | > 100 µM (inactive) | > 100 µM (inactive) | > 100 µM (inactive) | > 100 µM (inactive) |  | > 100 µM (inactive) | > 100 µM (inactive) | > 100 µM (inactive) | > 100 µM (inactive) | 
3 | COc1ccc(Cc2n[nH]c(Nc3ccc(Br)cc3)nc2=O)cc1OC | > 100 µM (inactive) | > 100 µM (inactive) | > 88.1 µM (inactive) | 14.2 µM (inactive) | > 100 µM (inactive) | > 100 µM (inactive) | > 100 µM (inactive) | > 100 µM (inactive) | 36.6 µM (inactive) | > 100 µM (inactive) | 50.1 µM (inactive) | > 89.7 µM (inactive) | > 87.9 µM (inactive) | > 100 µM (inactive) | > 100 µM (inactive) | > 74.3 µM (inactive) | 
4 | CCOP(=O)(OCC)c1ccc(=O)[nH]c1-c1cccs1 | > 100 µM (inactive) | > 100 µM (inactive) | > 100 µM (inactive) | > 100 µM (inactive) | > 100 µM (inactive) | > 100 µM (inactive) | > 100 µM (inactive) | > 100 µM (inactive) | > 100 µM (inactive) | > 100 µM (inactive) |  | > 100 µM (inactive) | > 100 µM (inactive) | > 100 µM (inactive) | > 100 µM (inactive) | > 100 µM (inactive) | > 100 µM (inactive)
5 | Cc1ccc(C2NC(=N)NC3=C2CCOc2c3ccc3ccccc23)cc1 (stereo not drawn) | 7.8 µM (inactive) | 5.66 µM (inactive) | 7.16 µM (inactive) | 2.27 µM (inactive) |  | 4.42 µM (inactive) | 14.6 µM (inactive) | 15.1 µM (inactive) | 4.21 µM (inactive) | 6.38 µM (inactive) | 3.75 µM (inactive) | 1.76 µM (inactive) | 12.9 µM (inactive) |  | 3.66 µM (inactive) | 4.92 µM (inactive) | 
6 | CC(=O)Oc1ccc2cc(Oc3ccccc3)c(=O)oc2c1 | > 100 µM (inactive) | 62.7 µM (inactive) | > 100 µM (inactive) |  | > 100 µM (inactive) | > 100 µM (inactive) | 48.2 µM (inactive) |  | > 100 µM (inactive) | > 100 µM (inactive) | > 100 µM (inactive) | > 100 µM (inactive) | 50.4 µM (inactive) | > 100 µM (inactive) | > 100 µM (inactive) | 46 µM (inactive) | > 100 µM (inactive)
7 | CN(C)C1(N(C)C)Oc2c(c(=O)n(C)c(=O)n2C)C(c2ccc(Br)cc2)C1(F)F (stereo not drawn) | > 100 µM (inactive) | 82.4 µM (inactive) | > 100 µM (inactive) | > 100 µM (inactive) |  | > 100 µM (inactive) | > 100 µM (inactive) | > 100 µM (inactive) | > 100 µM (inactive) |  | > 100 µM (inactive) | > 100 µM (inactive) | > 100 µM (inactive) | > 100 µM (inactive) | > 100 µM (inactive) | > 100 µM (inactive) | 
8 | Cn1nc2ccc3nccc(N4CCN(CCO)CC4)c3c2n1 |  |  | > 100 µM (inactive) | > 100 µM (inactive) | > 100 µM (inactive) |  | > 100 µM (inactive) |  | > 100 µM (inactive) | > 100 µM (inactive) | > 100 µM (inactive) | > 100 µM (inactive) | > 100 µM (inactive) | > 100 µM (inactive) |  | > 100 µM (inactive) | > 100 µM (inactive)
9 | Cc1cc(C#N)c[n+](C)c1 | > 100 µM (inactive) |  | > 100 µM (inactive) |  | > 100 µM (inactive) |  | > 100 µM (inactive) | > 100 µM (inactive) | > 100 µM (inactive) | > 100 µM (inactive) | > 100 µM (inactive) | > 100 µM (inactive) | > 100 µM (inactive) | > 100 µM (inactive) | > 100 µM (inactive) | > 100 µM (inactive) | > 100 µM (inactive)
10 | COC(=O)C1CCC(=O)N1C(c1cc(OC)c(OC)c(OC)c1)c1cc(OC)c(OC)c(OC)c1 (stereo not drawn) | > 100 µM (inactive) | > 100 µM (inactive) |  | > 100 µM (inactive) | 94.6 µM (inactive) | > 100 µM (inactive) | > 100 µM (inactive) |  | > 100 µM (inactive) | > 100 µM (inactive) | > 100 µM (inactive) | > 100 µM (inactive) |  | > 100 µM (inactive) |  | > 100 µM (inactive) | > 100 µM (inactive)
11 | CCOC(=O)NC(Nc1ccc(S(=O)(=O)Nc2nc(C)cc(C)n2)cc1)(C(=O)OCC)C(F)(F)F (stereo not drawn) | > 100 µM (inactive) | > 100 µM (inactive) | > 100 µM (inactive) | > 100 µM (inactive) | > 100 µM (inactive) | > 100 µM (inactive) | > 100 µM (inactive) |  | > 100 µM (inactive) | > 100 µM (inactive) | > 100 µM (inactive) | > 100 µM (inactive) | > 100 µM (inactive) | > 100 µM (inactive) | > 100 µM (inactive) | > 100 µM (inactive) | > 100 µM (inactive)
12 | CCCCNc1nc(NC2OCC(OC(C)=O)C(OC(C)=O)C2OC(C)=O)c(N=O)c(=O)n1C (stereo not drawn) | > 10 µM (inactive) | > 10 µM (inactive) | > 10 µM (inactive) | > 10 µM (inactive) | > 10 µM (inactive) | > 10 µM (inactive) | > 10 µM (inactive) | > 10 µM (inactive) | > 10 µM (inactive) | > 10 µM (inactive) | > 10 µM (inactive) | > 10 µM (inactive) | > 10 µM (inactive) | > 10 µM (inactive) | > 10 µM (inactive) | > 10 µM (inactive) | 
13 | CCCCCCCCCCCCCCCCCCNc1ccn(C2OC(COP(=O)(O)OC3CC(n4cc(F)c(=O)[nH]c4=O)OC3COP(=O)(O)OCC3OC(n4ccc(N)nc4=O)C(O)C3O)C(O)C2O)c(=O)n1 (stereo not drawn) | 32 µM (inactive) | > 60.4 µM (inactive) | 2.35 µM (inactive) | 8.18 µM (inactive) | 15.2 µM (inactive) | 14.9 µM (inactive) | 0.0906 µM (active) | 14.5 µM (inactive) | 14.4 µM (inactive) | 15.8 µM (inactive) | 26.2 µM (inactive) | 0.453 µM (active) | 3.62 µM (inactive) | 0.143 µM (active) | 4.47 µM (inactive) | 30.5 µM (inactive) | 
14 | Cc1ccc(C)c(N2C(=O)C(=O)c3c(C)ccc(C)c32)c1 | 60.7 µM (inactive) | 23.6 µM (inactive) |  | 21.1 µM (inactive) | 15.3 µM (inactive) |  | 25.7 µM (inactive) | 23.6 µM (inactive) | 24.5 µM (inactive) | 26.8 µM (inactive) | 16.9 µM (inactive) | 17.1 µM (inactive) | 14.8 µM (inactive) | 17.1 µM (inactive) | 25.5 µM (inactive) | 16.3 µM (inactive) | 
15 | CC(C)C1=CC23CCC4C(C)(C(=O)O)CCCC4(C)C2CC1C1C(=O)N(c2cccc(N4C(=O)C5C6CC7C8(C)CCCC(C)(C(=O)O)C8CCC7(C=C6C(C)C)C5C4=O)c2)C(=O)C13 (stereo not drawn) | 6.46 µM (inactive) | 23.4 µM (inactive) | 6.81 µM (inactive) | 4.02 µM (inactive) |  | 9.35 µM (inactive) | 14.7 µM (inactive) |  | 2.75 µM (inactive) | 13.3 µM (inactive) | 14.8 µM (inactive) | 11.6 µM (inactive) | 15.3 µM (inactive) | 13.4 µM (inactive) |  | 13.1 µM (inactive) | 
16 | c1ccc2c(c1)OC(N1CCCC1)c1cnc(N3CCCC3)nc1-2 (stereo not drawn) | 19.4 µM (inactive) | 13.6 µM (inactive) |  | 49.8 µM (inactive) |  | 20.7 µM (inactive) | 43.4 µM (inactive) |  | 41.3 µM (inactive) | 45.2 µM (inactive) | 41.8 µM (inactive) | 50.9 µM (inactive) |  | 40.6 µM (inactive) | 20.9 µM (inactive) | 22.9 µM (inactive) | 
17 | C/C(=N\NC(=O)c1ccncc1)c1ccccc1F |  | 2.37 µM (inactive) | > 10 µM (inactive) |  | > 10 µM (inactive) | > 10 µM (inactive) | > 10 µM (inactive) | > 10 µM (inactive) | > 10 µM (inactive) | > 10 µM (inactive) |  | > 10 µM (inactive) | > 10 µM (inactive) | > 10 µM (inactive) | > 10 µM (inactive) | > 10 µM (inactive) | > 10 µM (inactive)
18 | CC(C)(Sc1cc(C(C)(C)C)c(O)c(C(C)(C)C)c1)Sc1cc(C(C)(C)C)c(O)c(C(C)(C)C)c1 [PROBUCOL] | 4.57 µM (inactive) |  |  | > 100 µM (inactive) | > 100 µM (inactive) | > 100 µM (inactive) | > 100 µM (inactive) | > 100 µM (inactive) | > 100 µM (inactive) | > 100 µM (inactive) | > 100 µM (inactive) | > 100 µM (inactive) | > 100 µM (inactive) | > 100 µM (inactive) | > 100 µM (inactive) |  | > 100 µM (inactive)
